Each structure is given as a SMILES string.

Experimental findings from US20250345440A1, “METAL-ORGANIC FRAMEWORK MATERIALS AND USES OF THE METAL-ORGANIC FRAMEWORK MATERIALS” (MOF Science, LLC, priority 2024, published 2025) are described below.

The data set can be described thus: Second study: NAD in tissues, oral (pegylated)NAD-Mg-GA vs injectable NAD. Format: in vivo. As to conditions: group 2 (IP injectable NAD) vs group 1 (oral (pegylated)NAD-Mg-GA), healthy rats.

On to `NC(=O)c1ccc[n+]([C@@H]2O[C@H](COP(=O)([O-])OP(=O)(O)OC[C@H]3O[C@@H](n4cnc5c(N)ncnc54)[C@H](O)[C@@H]3O)[C@@H](O)[C@H]2O)c1` [injectable NAD, Nicotinamide Adenine Dinucleotide], for which the “More NAD levels in the heart compared to group 1” value stood at 11%.
